Results as given in PubChem BioAssay (NCI).
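Tested at 5 concentrations; 48 h exposure; 96-well plates; endpoints linearly interpolated, else capped at highest concentration. TGI: concentration producing complete growth inhibition.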

How the values were obtained:
Assay in all cases: inhibition of tumour cell growth, NCI panel, 48 h
[1] = test system: 786-0 renal
[2] = test system: A498 renal
[3] = test system: A549 NSCLC
[4] = test system: ACHN renal
[5] = test system: CAKI-1 renal
[6] = test system: CCRF-CEM leukemia
[7] = test system: COLO 205 colon
[8] = test system: DLD-1 colon
[9] = test system: DMS 114 small cell lung
[10] = test system: DMS 273 small cell lung
[11] = test system: EKVX NSCLC
[12] = test system: HCC-2998 colon
[13] = test system: HCT-116 colon
[14] = test system: HL-60(TB) leukemia
[15] = test system: HOP-18 NSCLC
[16] = test system: HOP-62 NSCLC
[17] = test system: HT29 colon
[18] = test system: IGROV1 ovarian
[19] = test system: K-562 leukemia
[20] = test system: KM12 colon
[21] = test system: LOX IMVI melanoma
[22] = test system: LXFL 529 NSCLC
[23] = test system: M14 melanoma
[24] = test system: M19-MEL melanoma
[25] = test system: MALME-3M melanoma
[26] = test system: MOLT-4 leukemia
[27] = test system: NCI-H226 lung
[28] = test system: NCI-H23 lung
[29] = test system: NCI-H460 lung
[30] = test system: NCI-H522 lung
[31] = test system: OVCAR-5 ovarian
[32] = test system: OVCAR-8 ovarian
[33] = test system: RPMI-8226 leukemia
[34] = test system: SF-268 CNS
[35] = test system: SF-295 CNS
[36] = test system: SF-539 CNS
[37] = test system: SK-MEL-5 melanoma
[38] = test system: SK-OV-3 ovarian
[39] = test system: SN12C renal
[40] = test system: SNB-19 CNS
[41] = test system: SNB-75 CNS
[42] = test system: SNB-78 CNS
[43] = test system: SR leukemia
[44] = test system: SW-620 colon
[45] = test system: TK-10 renal
[46] = test system: U251 CNS
[47] = test system: UACC-257 melanoma
[48] = test system: UACC-62 melanoma
[49] = test system: UO-31 renal
[50] = test system: XF 498 CNS
[51] = test system: HCT-15 colon
[52] = test system: OVCAR-3 ovarian
[53] = test system: OVCAR-4 ovarian
[54] = test system: RXF 393 renal
[55] = test system: SK-MEL-2 melanoma
[56] = test system: SK-MEL-28 melanoma

CC(C)NCCCC(C)Nc1ccnc2ccc3nn(C)nc3c12 (stereo unspecified)
TGI [1]: > 100 µM
TGI [2]: > 100 µM
TGI [3]: > 100 µM
TGI [4]: > 100 µM
TGI [5]: > 100 µM
TGI [6]: > 100 µM
TGI [7]: > 100 µM
TGI [8]: > 100 µM
TGI [9]: > 100 µM
TGI [10]: > 100 µM
TGI [11]: > 100 µM
TGI [12]: > 100 µM
TGI [13]: > 100 µM
TGI [14]: > 100 µM
TGI [15]: > 100 µM
TGI [16]: > 100 µM
TGI [17]: > 100 µM
TGI [18]: > 100 µM
TGI [19]: > 100 µM
TGI [20]: > 100 µM
TGI [21]: > 100 µM
TGI [22]: > 100 µM
TGI [23]: > 100 µM
TGI [24]: > 100 µM
TGI [25]: > 100 µM
TGI [26]: > 100 µM
TGI [27]: > 100 µM
TGI [28]: > 100 µM
TGI [29]: > 100 µM
TGI [30]: > 100 µM
TGI [31]: > 100 µM
TGI [32]: > 100 µM
TGI [33]: > 100 µM
TGI [34]: > 100 µM
TGI [35]: > 100 µM
TGI [36]: > 100 µM
TGI [37]: > 100 µM
TGI [38]: > 100 µM
TGI [39]: > 100 µM
TGI [40]: > 100 µM
TGI [41]: > 100 µM
TGI [42]: > 100 µM
TGI [43]: > 100 µM
TGI [44]: > 100 µM
TGI [45]: > 100 µM
TGI [46]: > 100 µM
TGI [47]: > 100 µM
TGI [48]: > 100 µM
TGI [49]: > 100 µM
TGI [50]: > 100 µM

O=C(NN1C(=O)C(Cl)C1c1ccc(O)cc1)c1ccccc1O (stereo unspecified)
TGI [1]: 33.5 µM
TGI [3]: 50 µM
TGI [4]: 34.5 µM
TGI [6]: > 100 µM
TGI [8]: 30.6 µM
TGI [9]: 29.6 µM
TGI [10]: 25.5 µM
TGI [13]: 28.5 µM
TGI [51]: 30.6 µM
TGI [14]: > 100 µM
TGI [15]: 30.4 µM
TGI [17]: 36.1 µM
TGI [18]: 27.5 µM
TGI [19]: > 100 µM
TGI [20]: 29.5 µM
TGI [21]: 31.7 µM
TGI [22]: 33.3 µM
TGI [23]: 38.4 µM
TGI [24]: 40.6 µM
TGI [25]: 34.5 µM
TGI [26]: > 100 µM
TGI [27]: 30.7 µM
TGI [28]: 41.8 µM
TGI [29]: 35.7 µM
TGI [30]: 34.5 µM
TGI [52]: 31.7 µM
TGI [53]: 40.4 µM
TGI [32]: 30.8 µM
TGI [54]: 27 µM
TGI [34]: 41.2 µM
TGI [35]: 33.9 µM
TGI [36]: 38.5 µM
TGI [55]: 48.3 µM
TGI [56]: 36.5 µM
TGI [37]: 27.7 µM
TGI [38]: 59.5 µM
TGI [39]: 43.7 µM
TGI [40]: 43.7 µM
TGI [41]: > 100 µM
TGI [42]: 65.4 µM
TGI [45]: 70.6 µM
TGI [46]: 27.3 µM
TGI [47]: 55.9 µM
TGI [48]: 32.3 µM
TGI [49]: 29 µM
TGI [50]: 23.7 µM
